According to patent US11220524B2, “Selective inhibitors of protein arginine methyltransferase 5 (PRMT5)” (PRELUDE THERAPEUTICS, INCORPORATED, priority 2017, dated 2022):
≈ marks a conversion by molar mass, not a printed value. Read-outs that look alike come from different tables or passages of the source. Values belong to the molecule of their own block, whether it stands above or below them.

How the values were obtained:
[1] = system: Symmetric Di-Methyl Arginine (sDMA) in Granta-519 cells; assay: Western blot for symmetric di-methyl arginine (sDMA) marks in Granta cells, 3 days treatment; format: cell-based; settings: Homo sapiens, 3 days
Granta-519 cells = assay: Cell proliferation assay on Granta-519 cells (CCK-8, day 10); format: cell-based; settings: Homo sapiens
Experimental: Cell Proliferation Assay to Determine IC50 on Granta-519 Cells
Granta-519 cells were maintained in PRMI 1640 (Corning Cellgro, Catalog #: 10-040-CV) medium supplemented with 10% v/v FBS (GE Healthcare, Catalog #: SH30910.03). Compounds were dissolved in DMSO to make 10 mM stocks and stored at −20° C. Nine-point, 3-fold serial dilutions were made with DMSO with top concentration at 1 mM (working stocks).
On day of experiment, compound working stocks were further diluted at 1:50 with fresh medium in 96 well plate, and 10 μL of diluted drugs were added to a new 96 well plate for proliferation assay. Cells growing at exponential phase were spun down at 1500 rpm for 4 min and resuspend in fresh medium to reach a density of 0.5×10^6 cells/ml. 200 ul of cells were added to 96 well plate containing diluted drugs and incubated for 3 days. DMSO was used a vehicle control.
One day 3, 10 μL of Cell Counting Kit-8 (CCK-8, Jojindo, CK04-13) solution was added to a new 96 well plate. Cells incubated with drugs for 3 days were resuspended by pipetting up and down, and 100 μL of cells were transferred to 96 well plate containing CCK-8 reagent to measure viable cells. Plates were incubated in C02 incubator for 2 hours and OD450 values were measured with a microplate reader (iMark microplate reader, Bio-Rad).
For re-plating, compound working stocks were diluted at 1:50 with fresh medium and 10 μL of diluted drugs were added to anew 96 well plate. Cells from Day 3plate (50 ul) were added to 96 well plate containing fresh drug and additional 150 of fresh medium was added to reach 200 ul volume. Plate was returned to CO2incubator and incubated for 3more days. Viable cells measurement and re-plating were repeated on day 6, and the final viable cells measurement was taken on day 10.
Percentage of viable cells, relative to DMSO vehicle control, were calculated and plotted in Graphpad Prism ([Inhibitor] vs. normalized response-Variable slope) to determine proliferation IC50 values on day 10.

physchem = settings: 25 °C, fassif, thermodynamic from solid
Experimental: Compounds were first dispersed in freshly prepared FaSSIF (http://biorelevant.com/site_media/upload/documents/How_to_make_FaSSIF_FeSSIF_and_FaSSGF.pdf) buffer in 1 mg/mL respectively, and the standard samples were prepared by preparing 1 mg/mL of test compounds in DMSO. The compounds were then sufficient mixed by vortex mixer for 30 sec, and agitated at 25° C. using 300 rpm form 4 hour in thermo mixer. After incubation, the prepared samples were centrifuged at 10000 rpm for 10 min to remove the undissolved solid, the resulting supernatants were applied to HPLC. The actual concentrations of the compounds were evaluated by measuring the peak area, and the solubility (S) of compounds was calculated according to following equation: S=Csmp=Cstd*(Asmp/Astd)*(Vstd/Vsmp) Where C is the sample concentration in μg/mL, A is the peak area, and V is the injection volume.

PRMT5/MEP50 complex = PRMT5/MEP50 complex (Homo sapiens (Human), UniProt O14744); assay: Biochemical assay: PRMT5/MEP50 methylation of histone H2A with 3H-SAM, filter plate scintillation
Procedure, shortened: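 5 nM PRMT5/MEP50 preincubated with compound 15–20 min at room temperature, with 5 μM histone H2A as substrate; reaction started with 1 μM 3H-SAM and run 60 min at 30 °C. TCA-stopped, filter-captured methylation counted by scintillation; IC50 from 4-parameter Hill fit.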

[2] = In vivo pharmacokinetic study in rat (i.v. and p.o.); settings: for clearance / half-life / Vd / bioavailability: blood; for clearance / half-life / Vd: iv; for half-life: read-out: T1/2 (printed T2) (converted); for Vd: read-out: Vss; for bioavailability: po
Experimental: In Vivo Pharmacokinetic Properties of Example 36.
In a rat (SD, male, non-fasted) non-crossover cassette PK study, Example 36 was dosed at 0.25 mg/kg via i.v. administration (N=3) and 2 mg/kg via oral gauge (p.o.) (N=3) with other 3 compounds.
In Vivo Pharmacokinetic Properties of Example 92.
In a rat (SD, male, non-fasted) non-crossover PK study, Example 92 was dosed at 1 mg/kg (DMA: 20% HPBCD=5:95, solution) via i.v. administration (N=2) and 1 mg/kg (0.5% Na CMC+0.5% Tween80, solution) via oral gauge (p.o.) (N=2).

[3] = system: sDMA in Granta-519 tumors; assay: In vivo pharmacodynamic effect: sDMA levels in tumor samples of Granta-519 mouse xenograft model
Experimental: (§1) In Vivo Pharmacodynamic Effect of Example 36 in Granta-519 Mouse Xenograft Model.
(§2) Granta-519 cells was maintained in DMEM medium supplemented with 10% fetal bovine serum and 2 mM L-Glutamine at 37° C. in an atmosphere of 5% C02 in air. Cells in exponential growth phase were harvested and 1×10^7 cells in 0.1 mL of PBS with Matrigel (1:1) were injected subcutaneously at the right lower flank region of each mouse for tumor development. The treatments were started when the mean tumor size reaches approximately 300-400 mm^3. […] Example 36 or vehicle (0.5% methylcellulose+0.1% Tween 80) were administered orally (BID for Example 36, QD for vehicle) at a dose of 25 mg/kg for 6 days. Body weights and tumor size were measured thrice weekly after randomization. Animals were euthanized 4 hours after last dosing on day 6, and blood and tumor samples were collected for analysis.
To measure sDMA levels in tumor samples, tumors from each mouse were weighted and homogenized in RIPA buffer supplemented with protease inhibitor (cOmplete™, EDTA-free Protease Inhibitor Cocktail, Roche). […] Total protein concentrations of lysate were determined by BCA assay (ThermoFisher Scientific, Catalog #: 23225). Equal amount of total proteins from each tumor were separated on SDS-PAGE gel, and sDMA levels were determined by WB as described previously. […]

[4] = system: Granta-519 mouse xenograft; assay: Tumor growth inhibition and body weight in Granta-519 mouse xenograft model; format: in vivo; settings: for tumor growth inhibition: N=5
Experimental: as §1, §2
Example 92 or vehicle (0.5% Na CMC+0.5% Tween80, suspension) were administered orally (QD for Example 92, QD for vehicle) at a dose of 50 mg/kg for 14 days. Body weights and tumor size were measured every 3 to 4 days after randomization. Animals were euthanized 4 hours after last dosing, and blood and tumor samples were collected for analysis.

[5] = histone H2A 5 μM, SAM 1 μM, enzyme 5 nM, read-out: PRMT5/MEP50 IC50
[6] = rat SD male non-fasted, cassette, i.v. 0.25 mg/kg, N=3
[7] = rat SD male non-fasted, i.v. 1 mg/kg, N=2
[8] = rat SD male non-fasted, p.o. 1 mg/kg, N=2

PRMT5/MEP50 complex, sequence (O14744 whole entry): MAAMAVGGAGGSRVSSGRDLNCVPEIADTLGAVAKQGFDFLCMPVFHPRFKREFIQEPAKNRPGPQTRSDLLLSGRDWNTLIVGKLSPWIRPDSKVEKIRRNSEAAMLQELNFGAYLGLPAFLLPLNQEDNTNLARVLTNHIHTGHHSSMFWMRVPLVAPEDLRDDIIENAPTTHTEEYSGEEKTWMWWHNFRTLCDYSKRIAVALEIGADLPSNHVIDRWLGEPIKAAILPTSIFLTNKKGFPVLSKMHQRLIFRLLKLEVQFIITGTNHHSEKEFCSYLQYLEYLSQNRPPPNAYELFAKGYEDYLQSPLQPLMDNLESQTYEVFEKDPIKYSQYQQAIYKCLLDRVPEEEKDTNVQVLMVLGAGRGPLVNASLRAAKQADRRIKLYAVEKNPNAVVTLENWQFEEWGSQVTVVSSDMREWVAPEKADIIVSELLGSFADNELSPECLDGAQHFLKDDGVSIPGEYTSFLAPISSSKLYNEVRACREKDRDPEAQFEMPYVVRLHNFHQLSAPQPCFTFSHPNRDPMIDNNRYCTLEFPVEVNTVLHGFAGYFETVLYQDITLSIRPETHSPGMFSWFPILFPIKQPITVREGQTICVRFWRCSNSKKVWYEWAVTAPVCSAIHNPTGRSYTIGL
PRMT5/MEP50 complex, sequence (Q9BQA1 whole entry partner): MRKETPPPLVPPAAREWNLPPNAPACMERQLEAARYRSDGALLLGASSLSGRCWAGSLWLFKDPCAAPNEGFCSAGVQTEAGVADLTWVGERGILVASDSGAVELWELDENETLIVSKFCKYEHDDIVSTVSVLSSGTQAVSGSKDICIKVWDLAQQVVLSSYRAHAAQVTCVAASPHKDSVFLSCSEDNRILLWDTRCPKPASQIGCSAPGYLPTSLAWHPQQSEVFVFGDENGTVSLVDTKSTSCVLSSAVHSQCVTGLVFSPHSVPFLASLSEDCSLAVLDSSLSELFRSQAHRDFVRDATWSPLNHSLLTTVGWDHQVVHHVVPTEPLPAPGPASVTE

- IC50 ([1]; 72 h, Granta-519 cell line): 102 µM
- solubility at 4 h (physchem): 912 µg/mL (≈ 2240 µM)
- IC50 (PRMT5/MEP50 complex; [5]): 17.3 µM
- clearance [2, 6]: 12.3 mL/min/kg
- half-life [2, 6]: 1.2 h
- Vd [2, 6]: 1.1 L/kg
- bioavailability ([2]; rat SD male non-fasted, cassette, p.o. 2 mg/kg, N=3): > 120%
Structure (SMILES): CO/N=c1/nc[nH]c2c1ccn2[C@@H]1O[C@H]([C@H](O)c2ccc(Cl)cc2)[C@@H](O)[C@H]1O [compound 36, (2R,3S,4R,5R)-2-[(R)-(4-chlorophenyl)-hydroxy-methyl]-5-(-4-methoxyimino-1H-pyrrolo[2,3-d]pyrimidin-7-yl]tetrahydrofuran-3,4-diol]
- IC50 (Granta-519 cells; 240 h, Granta-519 cell line, read-out: Proliferation IC50): 0.144 µM

- IC50 (PRMT5/MEP50 complex; [5]): 1.97 µM
- clearance [2, 7]: 11.3 mL/min/kg
- half-life [2, 7]: 1.84 h
- Vd [2, 7]: 1.13 L/kg
- bioavailability [2, 8]: > 100%
- dose normalized AUC0-inf [2, 8]: 2184 ng·kg·h/mL/mg
Structure (SMILES): CO/N=c1\[nH]cnc2c1ncn2[C@@H]1O[C@H]([C@](C)(O)c2ccc(Cl)c(Cl)c2)[C@@H](O)[C@H]1O [Example 92, (2S,3S,4R,5R)-2-[(1R)-1-(3,4-dichlorophenyl)-1-hydroxy-ethyl]-5-[(6Z)-6-methoxyimino-1H-purin-9-yl]tetrahydrofuran-3,4-diol]
- inhibition of sDMA in tumor samples ([3]; 50 mg/kg orally QD for 14 days): > 90%
- body weight loss ([4]; 50 mg/kg orally QD for 14 days): 1%
- tumor growth inhibition ([4]; 50 mg/kg orally QD for 14 days): 74%

- IC50 ([1]; Granta-519, 72 h, Granta cell line): 0.0082 µM
- IC50 (PRMT5/MEP50 complex; biochemical potency, read-out: PRTMT5/MEP50 IC50): 0.0036 µM
- metabolite detection in blood samples ([2]; rat, after dosing of Example 92 at 1 mg/kg): detected in blood samples
- AUC0-inf of metabolite ([2]; rat, metabolite after dosing of Example 92 at 1 mg/kg): 284 ng·kg·h/mL/mg
Structure (SMILES): C[C@@](O)(c1ccc(Cl)c(Cl)c1)[C@H]1O[C@@H](n2cnc3c(N)ncnc32)[C@H](O)[C@@H]1O [Example 1-C, (2R,3R,4S,5S)-2-(6-amino-9H-purin-9-yl)-5-((R)-1-(3,4-dichlorophenyl)-1-hydroxyethyl)tetrahydrofuran-3,4-diol]
- sDMA in tumor samples ([3]; 30 mg/kg, separate experiment): no detectable amount of sDMA
- IC50 (Granta-519 cells; Granta-519, 240 h, Granta cell line, read-out: Prolif. IC50): 0.044 µM
- body weight gain ([4]; 30 mg/kg, separate experiment): 6%
- tumor growth inhibition ([4]; 30 mg/kg, separate experiment): 61%
- metabolite detection in blood and tumor samples ([4]; mouse xenograft, after Example 92 at 50 mg/kg QD for 14 days): detected in all blood and tumor samples
